{"source": "patent US9340574B2", "about": "“Inhibitors of protein tyrosine phosphatases” (Indiana University Research and Technology Corporation, priority 2012, dated 2016)", "key": {"PTP-MEG1": {"biological_target": "PTP-MEG1 (Homo sapiens (Human), UniProt P29074)", "sequence (P29074 whole entry)": "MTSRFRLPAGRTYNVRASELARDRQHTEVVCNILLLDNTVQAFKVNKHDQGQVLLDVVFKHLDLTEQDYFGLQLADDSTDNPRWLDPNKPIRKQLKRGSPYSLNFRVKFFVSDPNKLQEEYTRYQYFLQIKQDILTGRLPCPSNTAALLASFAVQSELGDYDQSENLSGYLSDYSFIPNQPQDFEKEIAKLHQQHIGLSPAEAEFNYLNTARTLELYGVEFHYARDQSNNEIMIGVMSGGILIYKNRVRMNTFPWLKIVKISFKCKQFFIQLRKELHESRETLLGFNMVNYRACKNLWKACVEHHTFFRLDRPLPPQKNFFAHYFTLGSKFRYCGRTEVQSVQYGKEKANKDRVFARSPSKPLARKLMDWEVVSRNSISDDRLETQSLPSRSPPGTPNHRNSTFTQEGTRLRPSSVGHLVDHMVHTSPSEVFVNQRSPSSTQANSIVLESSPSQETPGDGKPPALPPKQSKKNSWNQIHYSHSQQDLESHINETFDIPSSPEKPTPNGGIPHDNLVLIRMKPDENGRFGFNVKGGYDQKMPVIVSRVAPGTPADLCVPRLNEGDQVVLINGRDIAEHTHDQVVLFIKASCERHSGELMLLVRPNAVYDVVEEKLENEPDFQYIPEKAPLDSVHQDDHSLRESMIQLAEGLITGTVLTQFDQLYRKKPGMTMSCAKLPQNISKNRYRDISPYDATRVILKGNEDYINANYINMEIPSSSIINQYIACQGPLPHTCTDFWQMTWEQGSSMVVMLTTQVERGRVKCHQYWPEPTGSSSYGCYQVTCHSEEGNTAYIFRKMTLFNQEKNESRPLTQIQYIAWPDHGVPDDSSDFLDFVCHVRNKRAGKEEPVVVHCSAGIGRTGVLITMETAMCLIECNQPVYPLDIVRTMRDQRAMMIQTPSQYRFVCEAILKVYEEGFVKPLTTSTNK", "assay": "pNPP hydrolysis enzyme assay, PTP-MEG1", "format": "biochemical", "method": "(§1) Enzyme kinetic assay. PTP activity was assayed using p-nitrophenyl phosphate (pNPP) as a substrate in 3,3-dimethylglutarate buffer (50 mM 3,3-dimethylglutarate, pH 7.0, 1 mM EDTA, 150 mM NaCl, 2 mM DTT, 0.1 mg/mL BSA) at 25° C. The assays were performed in 96-well plates. Normally, to determine the IC50 values, the reaction was initiated by the addition of enzyme (final concentration at 10 nM) to a reaction mixture (0.2 mL) containing 2 mM (Km for the substrate) pNPP with various concentrations of inhibitors. The reaction rate was measured using a SpectraMax Plus 384 Microplate Spectrophotometer (Molecular Devices). To determine the mode of inhibition, the reactions were initiated by the addition of PTP-MEG2 to the reaction mixtures (0.2 mL) containing various concentrations of pNPP with different concentrations of the inhibitor 7. Data were fitted using SigmaPlot Enzyme Kinetics Module (Systat Software, Inc.)."}, "FAP1": {"biological_target": "FAP1 (Homo sapiens (Human), UniProt Q12923)", "sequence (Q12923 whole entry, species assumed)": "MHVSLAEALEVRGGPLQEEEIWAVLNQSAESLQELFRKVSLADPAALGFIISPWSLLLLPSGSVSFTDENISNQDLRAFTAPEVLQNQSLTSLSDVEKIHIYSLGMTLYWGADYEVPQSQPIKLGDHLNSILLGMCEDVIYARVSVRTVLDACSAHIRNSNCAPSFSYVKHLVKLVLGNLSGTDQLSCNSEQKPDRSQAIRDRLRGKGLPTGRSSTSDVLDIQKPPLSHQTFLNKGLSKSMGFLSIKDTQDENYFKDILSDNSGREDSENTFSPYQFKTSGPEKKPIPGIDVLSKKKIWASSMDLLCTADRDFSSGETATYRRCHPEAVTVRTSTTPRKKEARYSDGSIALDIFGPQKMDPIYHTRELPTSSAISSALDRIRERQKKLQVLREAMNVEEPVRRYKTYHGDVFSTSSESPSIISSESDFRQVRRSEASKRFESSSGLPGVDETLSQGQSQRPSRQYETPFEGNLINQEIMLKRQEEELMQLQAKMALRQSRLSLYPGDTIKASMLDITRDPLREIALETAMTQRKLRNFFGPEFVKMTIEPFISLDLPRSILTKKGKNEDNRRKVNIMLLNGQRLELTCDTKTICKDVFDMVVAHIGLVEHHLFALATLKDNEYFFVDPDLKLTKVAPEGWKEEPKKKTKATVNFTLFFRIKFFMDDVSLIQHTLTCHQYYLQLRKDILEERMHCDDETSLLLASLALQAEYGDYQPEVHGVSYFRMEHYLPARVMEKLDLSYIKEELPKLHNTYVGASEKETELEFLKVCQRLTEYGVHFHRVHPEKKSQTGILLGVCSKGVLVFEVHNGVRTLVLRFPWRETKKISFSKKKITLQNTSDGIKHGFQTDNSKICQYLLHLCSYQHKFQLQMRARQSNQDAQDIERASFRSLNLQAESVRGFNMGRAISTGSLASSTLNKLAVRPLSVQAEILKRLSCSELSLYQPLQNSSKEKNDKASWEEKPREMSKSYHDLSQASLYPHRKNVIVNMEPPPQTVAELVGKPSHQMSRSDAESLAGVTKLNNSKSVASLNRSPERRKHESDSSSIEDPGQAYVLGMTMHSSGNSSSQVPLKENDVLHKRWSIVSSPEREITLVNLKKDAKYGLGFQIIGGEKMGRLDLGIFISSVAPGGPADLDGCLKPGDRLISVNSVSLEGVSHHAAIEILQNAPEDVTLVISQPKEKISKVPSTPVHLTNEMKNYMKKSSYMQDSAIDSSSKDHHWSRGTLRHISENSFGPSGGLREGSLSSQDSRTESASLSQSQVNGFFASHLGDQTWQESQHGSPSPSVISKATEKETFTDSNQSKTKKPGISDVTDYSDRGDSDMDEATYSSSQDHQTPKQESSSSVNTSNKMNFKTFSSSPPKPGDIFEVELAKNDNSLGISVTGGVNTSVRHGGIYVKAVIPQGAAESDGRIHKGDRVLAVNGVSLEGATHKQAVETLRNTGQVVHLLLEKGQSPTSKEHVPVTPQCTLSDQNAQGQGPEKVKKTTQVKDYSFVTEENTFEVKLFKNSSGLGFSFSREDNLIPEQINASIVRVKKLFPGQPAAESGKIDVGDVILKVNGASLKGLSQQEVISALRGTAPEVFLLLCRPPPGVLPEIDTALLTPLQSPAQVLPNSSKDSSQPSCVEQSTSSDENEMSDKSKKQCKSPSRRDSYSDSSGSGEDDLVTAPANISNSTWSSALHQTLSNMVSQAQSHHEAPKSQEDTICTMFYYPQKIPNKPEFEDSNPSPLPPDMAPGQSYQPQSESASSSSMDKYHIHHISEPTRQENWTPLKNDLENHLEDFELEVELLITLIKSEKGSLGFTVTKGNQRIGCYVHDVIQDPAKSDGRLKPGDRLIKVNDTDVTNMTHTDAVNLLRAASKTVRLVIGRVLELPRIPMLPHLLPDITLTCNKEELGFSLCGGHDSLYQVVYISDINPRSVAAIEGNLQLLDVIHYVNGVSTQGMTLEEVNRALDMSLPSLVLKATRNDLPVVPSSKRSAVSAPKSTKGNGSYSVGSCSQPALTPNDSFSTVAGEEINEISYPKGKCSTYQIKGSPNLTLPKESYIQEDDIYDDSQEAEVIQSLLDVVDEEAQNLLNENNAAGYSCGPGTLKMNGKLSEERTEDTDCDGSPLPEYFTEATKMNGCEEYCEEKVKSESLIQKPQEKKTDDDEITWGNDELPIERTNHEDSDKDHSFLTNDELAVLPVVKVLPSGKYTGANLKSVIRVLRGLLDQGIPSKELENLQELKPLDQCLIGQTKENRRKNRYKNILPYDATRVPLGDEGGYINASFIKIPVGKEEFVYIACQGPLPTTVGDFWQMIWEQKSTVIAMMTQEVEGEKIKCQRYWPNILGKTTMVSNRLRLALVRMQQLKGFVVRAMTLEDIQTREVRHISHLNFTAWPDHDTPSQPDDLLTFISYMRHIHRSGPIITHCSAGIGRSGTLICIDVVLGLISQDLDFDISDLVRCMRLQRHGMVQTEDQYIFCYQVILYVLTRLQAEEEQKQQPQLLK", "assay": "pNPP hydrolysis enzyme assay, FAP1", "format": "biochemical", "method": "as §1"}, "VHX": {"biological_target": "VHX (Homo sapiens (Human), UniProt Q9NRW4)", "sequence (Q9NRW4 whole entry)": "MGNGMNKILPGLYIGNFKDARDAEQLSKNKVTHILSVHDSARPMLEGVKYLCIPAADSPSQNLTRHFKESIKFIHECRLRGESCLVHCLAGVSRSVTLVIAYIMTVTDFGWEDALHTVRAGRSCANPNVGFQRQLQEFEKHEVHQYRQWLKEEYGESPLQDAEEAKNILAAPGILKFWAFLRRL", "assay": "pNPP hydrolysis enzyme assay, VHX", "format": "biochemical", "method": "as §1"}, "Laforin": {"biological_target": "Laforin (Homo sapiens (Human), UniProt O95278)", "sequence (O95278 whole entry, species assumed)": "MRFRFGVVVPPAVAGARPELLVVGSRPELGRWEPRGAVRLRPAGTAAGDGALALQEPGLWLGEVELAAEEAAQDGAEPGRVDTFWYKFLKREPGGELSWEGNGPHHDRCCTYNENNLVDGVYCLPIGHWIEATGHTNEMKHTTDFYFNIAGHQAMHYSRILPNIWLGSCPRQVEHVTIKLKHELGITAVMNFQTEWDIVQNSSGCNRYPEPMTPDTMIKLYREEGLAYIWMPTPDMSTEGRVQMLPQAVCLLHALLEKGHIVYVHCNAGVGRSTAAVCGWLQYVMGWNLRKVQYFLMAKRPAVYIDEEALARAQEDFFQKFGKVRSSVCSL", "assay": "pNPP hydrolysis enzyme assay, Laforin", "format": "biochemical", "method": "as §1"}, "PTPμ": {"biological_target": "PTPμ (Homo sapiens (Human), UniProt P28827)", "assay": "pNPP hydrolysis enzyme assay, PTPμ", "format": "biochemical", "method": "as §1"}, "PTP-PEST": {"biological_target": "PTP-PEST (Homo sapiens (Human), UniProt Q05209)", "sequence (Q05209 whole entry, species assumed)": "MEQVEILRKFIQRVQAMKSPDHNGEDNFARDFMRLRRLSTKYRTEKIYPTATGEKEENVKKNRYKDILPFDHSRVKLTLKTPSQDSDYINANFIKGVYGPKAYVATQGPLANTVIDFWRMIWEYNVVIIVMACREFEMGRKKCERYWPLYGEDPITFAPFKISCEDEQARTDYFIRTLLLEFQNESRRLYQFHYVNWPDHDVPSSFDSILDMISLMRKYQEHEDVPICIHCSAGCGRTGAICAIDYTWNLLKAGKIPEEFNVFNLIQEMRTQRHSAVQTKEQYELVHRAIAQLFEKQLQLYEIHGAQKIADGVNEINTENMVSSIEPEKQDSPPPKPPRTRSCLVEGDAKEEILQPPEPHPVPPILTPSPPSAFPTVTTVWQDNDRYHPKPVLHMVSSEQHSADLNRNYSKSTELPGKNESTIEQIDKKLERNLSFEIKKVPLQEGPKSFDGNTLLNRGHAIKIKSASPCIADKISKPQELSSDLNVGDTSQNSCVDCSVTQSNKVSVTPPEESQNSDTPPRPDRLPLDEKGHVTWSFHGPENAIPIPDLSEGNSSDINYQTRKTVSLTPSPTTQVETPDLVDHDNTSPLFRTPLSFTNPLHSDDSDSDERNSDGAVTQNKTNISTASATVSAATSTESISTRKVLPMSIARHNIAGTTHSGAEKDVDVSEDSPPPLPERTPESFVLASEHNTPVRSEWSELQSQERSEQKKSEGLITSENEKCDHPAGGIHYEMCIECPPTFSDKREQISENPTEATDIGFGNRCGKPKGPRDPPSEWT", "assay": "pNPP hydrolysis enzyme assay, PTP-PEST", "format": "biochemical", "method": "as §1"}, "PTPH1": {"biological_target": "PTPH1 (Homo sapiens (Human), UniProt P26045)", "assay": "pNPP hydrolysis enzyme assay, PTPH1", "format": "biochemical", "method": "as §1"}, "[1]": {"system": "insulin signaling in mouse primary hepatocytes", "assay": "Insulin signaling in mouse primary hepatocytes (Western blot)", "format": "cell-based", "details": "for increase of phosphorylated IR (Tyr1162/1163): 1 hour pretreatment, 5 nM insulin 5 minutes, vs DMSO", "method": "(§2) FIGS. 4A-B depict the ability of PTP-MEG2 inhibitor Compound 7 to sensitize insulin signaling in primary hepatocytes. […] Mouse primary hepatocytes were cultured in 0.5% FBS DMEM medium overnight. Prior to insulin stimulation, the cells were pretreated with Compound 7 or 8 for 1 hour. Then the cells were stimulated with 5 nM insulin for 5 minutes. Insulin signaling was analyzed by Western Blots using phospho-specific antibodies. […] Mouse primary hepatocytes were cultured in DMEM medium plus 0.5% FBS for overnight in the presence or absence of insulin or Compound 7 or 8. Then the cells were harvested for mRNA isolation and gene expression analysis using real-time PCR. The mRNA levels of Foxo1 target genes were normalized with Ppia as an internal control. Data are presented as mean±SEM. *, P<0.05 for Compound 7 vs. DMSO; #, P<0.05 for INS+Compound 7 vs. INS alone.\nFIG. 10 depicts the time course of pIR (Tyr 1162/63) level. Primary hepatocyte cells were starved overnight. Prior to insulin stimulation, the cells were preincubated with either vehicle DMSO, Compound 7, or Compound 8 for 1 hour. Then the cells were stimulated with 5 nM Insulin for 0, 5, 30, 60 min. Cell lysates were harvested for Western Blot, using anti-pIR (Tyr 1162/63) antibodies.\nMouse primary hepatocytes were isolated and cultured in DMEM medium with 0.5% FBS for 12 hours, and then were incubated with either vehicle DMSO, Compound 7 (100 nM), or Compound 8 (100 nM) for one hour. Phosphorylated IR, Gsk3β, and Foxo1 and the corresponding total proteins were analyzed by Western blots.\nPTP-MEG2 inhibitor Compound 7 augments insulin signaling in cells. Given the excellent potency and selectivity of Compound 7 toward PTP-MEG2, we proceeded to evaluate its effect on PTP-MEG2-dependent signaling inside the cell. To assess the effects of Compound 7 on insulin signaling, we pretreated mouse primary hepatocytes with Compound 7 for 1 hour and then stimulated the cells with 5 nM insulin for 5 minutes. […] Remarkably, the phosphorylated form of IR was increased 50% and 100% at concentrations of 50 nM (1.5×Ki) and 100 nM of Compound 7, respectively (FIG. 4A and FIG. 8). […] Phosphorylation of Akt (Ser473) was increased by 3.1 and 4.5 fold; phosphorylation of GSK-3β (Ser9) was increased by 1.5 and 2.0 fold; and phosphorylation of Foxo1 (Ser253) was increased by 2.1 and 2.9 fold at 100 and 200 nM concentrations of Compound 7, respectively.\nWestern blot analysis. Cells were homogenized in the lysis buffer (50 mM Hepes, pH 7.5, 150 mM NaCl, 10% Glycerol, 1% Triton X-100, 1.5 mM MgCl2, 1 mM EGTA, 10 μM Sodium Pyrophosphate, 100 mM sodium fluoride and freshly added 100 μM sodium vanadate, 1 mM PMSF, 10 μg/ml Aprotinin, and 10 μg/mL Leupeptin). Protein extracts were resolved on an SDS-PAGE gel and transferred to nitrocellulose membrane. Proteins were probed using the following antibodies: IR(pY1162/63), IR (Santa Cruz Biotechnology), Akt(pS473), Aid, GSK3β(pS9), GSK3β, Foxo1(pS256), Foxo1, Erk1/2(pT202/Y204), Erk1/2 (Cell Signaling Technology). Protein signals were detected by incubation with HRP-conjugated secondary antibodies, followed by ECL detection reagent (Pierce). Western blots were scanned and quantified using the Quantity One software (Bio-Rad)."}, "[2]": {"system": "Foxo1 target genes in mouse primary hepatocytes", "assay": "Foxo1 target gene expression in mouse primary hepatocytes (real-time PCR)", "format": "cell-based", "details": "with insulin, overnight, normalized with Ppia", "method": "as §2\nRNA isolation and real-time PCR. RNA isolation was performed as described previously (Jänne, et al. Nat. Rev. Drug Discov. 2009, 8, 709-723). Real-time RT-PCR was performed in two steps: first, cDNA was synthesized using a cDNA synthesis kit (Applied Biosystems Inc.); second, cDNA was analyzed by real-time PCR using SYBR Green Master Mix (Promega). […]"}}, "data": [{"molecule": "COc1cc(CC(=O)NCC(NC(=O)C(CCCNC(=O)c2cccc(I)c2)NC(=O)C(Cc2ccc(C(F)(F)P(=O)(O)O)cc2)NC(=O)c2ccc(C)c(Br)c2)C(N)=O)ccc1O", "note": "(stereo not shown) [Compound 7]", "values": [{"measurement": "IC50", "setting": "PTP-MEG1", "result": "> 10000", "unit": "nM"}, {"measurement": "IC50", "setting": "FAP1", "result": "> 10000", "unit": "nM"}, {"measurement": "IC50", "setting": "VHX", "result": "> 10000", "unit": "nM"}, {"measurement": "IC50", "setting": "Laforin", "result": "> 10000", "unit": "nM"}, {"measurement": "IC50", "setting": "PTPμ", "result": "> 10000", "unit": "nM"}, {"measurement": "IC50", "setting": "PTP-PEST", "result": "> 10000", "unit": "nM"}, {"measurement": "IC50", "setting": "PTPH1", "result": "> 10000", "unit": "nM"}, {"measurement": "increase of phosphorylated IR (Tyr1162/1163)", "setting": "[1]; 50 nM compound", "result": 50, "unit": "%"}, {"measurement": "increase of Akt (Ser473) phosphorylation", "setting": "[1]; 100 nM compound, 5 nM insulin", "result": 3.1, "unit": "fold"}, {"measurement": "increase of Foxo1 (Ser253) phosphorylation", "setting": "[1]; 100 nM compound, 5 nM insulin", "result": 2.1, "unit": "fold"}, {"measurement": "increase of GSK-3β (Ser9) phosphorylation", "setting": "[1]; 100 nM compound, 5 nM insulin", "result": 1.5, "unit": "fold"}, {"measurement": "increase of phosphorylated IR (Tyr1162/1163)", "setting": "[1]; 100 nM compound", "result": 100, "unit": "%"}, {"measurement": "insulin signaling pathway under basal conditions", "setting": "[1]; 100 nM, one hour, no insulin", "result": "enhanced"}, {"measurement": "increase of Akt (Ser473) phosphorylation", "setting": "[1]; 200 nM compound, 5 nM insulin", "result": 4.5, "unit": "fold"}, {"measurement": "increase of Foxo1 (Ser253) phosphorylation", "setting": "[1]; 200 nM compound, 5 nM insulin", "result": 2.9, "unit": "fold"}, {"measurement": "increase of GSK-3β (Ser9) phosphorylation", "setting": "[1]; 200 nM compound, 5 nM insulin", "result": 2.0, "unit": "fold"}, {"measurement": "Erk1/2 activation", "setting": "[1]; insulin-stimulated hepatocytes", "result": "strongly enhanced"}, {"measurement": "increase of basal phosphorylation of Foxo1", "setting": "[1]; no insulin, 100 nM, 1 hour", "result": 2.2, "unit": "fold"}, {"measurement": "increase of basal phosphorylation of GSK-3β", "setting": "[1]; no insulin, 100 nM, 1 hour", "result": 2.0, "unit": "fold"}, {"measurement": "increase of basal phosphorylation of IR", "setting": "[1]; no insulin, 100 nM, 1 hour", "result": 2.1, "unit": "fold"}, {"measurement": "duration of potentiation of insulin stimulated IR phosphorylation", "setting": "[1]; time course 0, 5, 30, 60 min, 5 nM insulin", "result": "at least 1 hour"}, {"measurement": "Pdk4, Igfbp1, and G6pc gene expression (Foxo1 transcriptional activity)", "setting": "[2]", "result": "synergistic reduction"}]}]}
